The test system of experiment [1] is neuroblastoma (N1E115) cells. Briefly: Assay for inhibition of cell proliferation (MTT), neuroblastoma cells. The format is cell-based, mouse. Conditions: for pIC50: neuroblastoma (N1E115) cells, MTT; for N1E115 Ratio (paclitaxel/compound): ratio of paclitaxel IC50 to compound IC50, N1E115 cells. How it is done: (§1) Human rabdomyosarcoma (RD) and mouse neuroblastoma (N1E115) cell lines were obtained from the American Type Culture Collection (ATCC, Rockville, Md.). The RD cells were grown in Dulbecco's modified eagle medium (DMEM) supplemented with 4 mM glutamine, containing 10% fetal bovine serum (ATCC #30-2020) and supplemented with 1% penicillin and 1% streptomycin. When confluent, the cells were maintained by passage (about once per week) until needed. The N1E115 line was also cultured in DMEM with 4 mM glutamine containing 10% newborn calf serum (Gibco, Grand Island, N.Y.) and likewise maintained.
(§2) The proliferation of rhabdomyosarcoma cells was determined using a cell proliferation assay kit based on the formation of insoluble formazan crystals from 3-(4,5-dimethylthiazol-2-yl)-2,5-diphenyltetrazolium bromide (MTT). The rhabdomyosarcoma cells were cultured to a density of 10^5 cells per mL. The cell culture (100 μL) was dispensed into wells of a 96-well plate to 10^4 cells per well. The plate was incubated at 37° C. for 3 h until the cells firmly attached to the well surfaces.
(§3) A second 96-well round bottom plate was made up containing the test compounds, serially diluted to cover the concentration range of interest using the DMEM medium plus antibiotics. The final concentration of DMSO in which the compounds were initially dissolved was maintained at a constant 0.5% in each well and the volume of the compounds in the plate was 220 μL. Following the 3 h incubation the medium was removed from the plate containing the cells and replaced with 200 μL of the solutions containing the compounds. The cells were incubated for a further 96 h before the assessment of growth inhibition using MTT.
(§4) The cells were left bathing in 100 μL of the saline solution to which was added 100 μL of MTT in saline (12 mM). Incubation was continued for 4 h at 37° C. to produce the blue formazan color which was quantified by optical density measurements at 570 nm. Background correction of all test wells was performed by subtraction of the yellow MTT solution color measured at 570 nm in cell-free wells. The data were normalized to solvent only control wells.

For experiment [2], the system named is rhabdomyosarcoma (RD) cells. The experiment in a line: Assay for inhibition of cell proliferation (MTT), rhabdomyosarcoma cells. In kind it is cell-based, human. The following applies: for pIC50: rhabdomyosarcoma (RD) cells, MTT, 96 h incubation; for RD Ratio (paclitaxel/compound): ratio of paclitaxel IC50 to compound IC50, RD cells. How it is done:
as §1, §2, §3, §4

pIC50: −log10 of the molar value.

`CC(C)Cn1c(-c2c(F)cccc2F)c(Cl)nc(-n2cccn2)c1=O` [Compound 1, 5-Chloro-6-(2,6-difluorophenyl)-1-(2-methylpropyl)-3-(1H-pyrazol-1-yl)-2(1H)-pyrazinone]: the pIC50 is 6.96 in experiment [1] (Mus musculus, N1E-115) and 6.30 in experiment [2] (Homo sapiens). Moreover, in experiment [1], the “N1E115 Ratio (paclitaxel/compound)” value stood at 0.80. Further, the “RD Ratio (paclitaxel/compound)” value in experiment [2] amounted to 0.03.

Take `CC(C)Cn1c(-c2c(F)cccc2F)c(Cl)nc(-n2cncn2)c1=O` [Compound 3]: in experiment [1], the pIC50 is 6.10 and the “N1E115 Ratio (paclitaxel/compound)” value was determined as 0.11. Besides, in experiment [2], the “RD Ratio (paclitaxel/compound)” value was found to be 0.01 and the pIC50 was 5.52.

Consider `CCCCn1c(-c2c(F)cc(F)cc2F)c(Cl)nc(-c2ccccn2)c1=O` [Compound 240], for which, in experiment [1], the pIC50 is 7.23 and the “N1E115 Ratio (paclitaxel/compound)” value was determined as 1.49. Further, in experiment [2], the “RD Ratio (paclitaxel/compound)” value is given as 0.01 and the pIC50 is 5.78.

Consider `CC[C@H](C)Cn1c(-c2ccc(F)cc2Cl)c(Cl)nc(-n2cccn2)c1=O` [Compound 263], for which, in experiment [1], the pIC50 is 7.10 and the “N1E115 Ratio (paclitaxel/compound)” value is 1.10. In experiment [2], the “RD Ratio (paclitaxel/compound)” value turned out to be 0.34 and the negative-log IC50 (pIC50) is 7.30.

Consider `O=c1c(-n2cccn2)nc(Cl)c(-c2c(F)cccc2F)n1Cc1ccc(F)cc1` [Compound 272], for which, in experiment [1], the pIC50 was 7.15 and the “N1E115 Ratio (paclitaxel/compound)” value is 1.26. Besides, in experiment [2], the “RD Ratio (paclitaxel/compound)” value is 0.24 and the pIC50 was 7.15.

In the case of `O=c1c(-n2cccn2)nc(Cl)c(-c2c(F)cc(F)cc2F)n1-c1cccc(F)c1` [Compound 324], in experiment [1], the pIC50 was 6.83 and the “N1E115 Ratio (paclitaxel/compound)” value was 0.60. Further, in experiment [2], the “RD Ratio (paclitaxel/compound)” value amounted to 0.34 and the pIC50 was 7.30.

For `CCC(C)Cn1c(-c2c(F)cc(F)cc2F)c(Cl)nc(C(N)=O)c1=O` (stereo not drawn) [Compound 415], in experiment [1], the pIC50 is 7.22 and the “N1E115 Ratio (paclitaxel/compound)” value stood at 1.47. Also, in experiment [2], the “RD Ratio (paclitaxel/compound)” value came to 0.43 and the pIC50 was 7.40.

Take `CC[C@H](C)Cn1c(-c2c(F)cc(OC)cc2F)c(Cl)nc(-n2cccn2)c1=O` [Compound 457, 5-Chloro-1-[(2S)-2-methylbutyl)-3-(1H-pyrazol-1-yl)-6-(2,6-difluoro-4-methoxyphenyl)-2(1H)-pyrazinone]: the pIC50 was 7.41 in experiment [1] (Mus musculus, N1E-115) and 8.96 in experiment [2] (Homo sapiens). Moreover, the “N1E115 Ratio (paclitaxel/compound)” value in experiment [1] is 2.26. Further, the “RD Ratio (paclitaxel/compound)” value in experiment [2] is listed as 15.45.

For `O=c1c(-n2cccn2)nc(Cl)c(-c2c(F)cc(F)cc2F)n1CC1CC1` [Compound 460], in experiment [1], the pIC50 is 6.77 and the “N1E115 Ratio (paclitaxel/compound)” value is 0.52. Moreover, in experiment [2], the “RD Ratio (paclitaxel/compound)” value came out at 0.19 and the pIC50 was 7.05.

For the compound `CCC(C)Cn1c(-c2ccc(OCCN(C)C)cc2F)c(Cl)nc(-n2cccn2)c1=O` (stereo not drawn) [Compound 477], in experiment [1], the pIC50 was 6.34 and the “N1E115 Ratio (paclitaxel/compound)” value came to 0.19. In experiment [2], the “RD Ratio (paclitaxel/compound)” value came out at 0.06 and the pIC50 is 6.58.

For the compound `CCC(C)Cn1c(-c2ccc(OCCN3CCCC3)cc2F)c(Cl)nc(-n2cccn2)c1=O` (stereo not drawn) [Compound 478], in experiment [1], the pIC50 is 5.96 and the “N1E115 Ratio (paclitaxel/compound)” value turned out to be 0.08. In addition, in experiment [2], the “RD Ratio (paclitaxel/compound)” value is listed as 0.04 and the pIC50 was 6.33.

As to `CCC(C)Cn1c(-c2c(F)cc(OCCN(C)C)cc2F)c(Cl)nc(-n2cccn2)c1=O` (stereo not drawn) [Compound 479, 5-Chloro-6-[4-[2-(dimethylamino)ethoxy]-2,6-difluorophenyl]-1-(2-methylbutyl)-3-(1H-pyrazol-1-yl)-2(1H)-pyrazinone], the pIC50 was 7.60 in experiment [1] (Mus musculus, N1E-115) and 6.70 in experiment [2] (Homo sapiens). Also, the “N1E115 Ratio (paclitaxel/compound)” value in experiment [1] was determined as 3.52. Besides, the “RD Ratio (paclitaxel/compound)” value in experiment [2] is 0.09.

Turning to `CCC(C)Cn1c(-c2c(F)cc(OCCN3CCCC3)cc2F)c(Cl)nc(-n2cccn2)c1=O` (stereo not drawn) [Compound 480], in experiment [1], the pIC50 is 6.41 and the “N1E115 Ratio (paclitaxel/compound)” value stood at 0.22. In experiment [2], the “RD Ratio (paclitaxel/compound)” value is on record as 0.04 and the pIC50 is 6.33.

With `CN(C)CCCOc1cc(F)c(-c2c(Cl)nc(-n3cccn3)c(=O)n2CC2CC2)c(F)c1` [Compound 481, 5-chloro-1-cyclopropylmethyl-6-[4-[3-(dimethylamino)propoxy]-2,6-difluorophenyl]-3-(1H-pyrazol-1-yl)-2(1H)-pyrazinone], the pIC50 in experiment [1] (Mus musculus, N1E-115) was 7.52; in experiment [2] (Homo sapiens), 8.49. Moreover, the “N1E115 Ratio (paclitaxel/compound)” value in experiment [1] amounted to 2.93. Moreover, the “RD Ratio (paclitaxel/compound)” value in experiment [2] is recorded as 5.37.

For the compound `CC[C@H](C)Cn1c(-c2c(F)cc(OCCCN(C)C)cc2F)c(Cl)nc(-n2cccn2)c1=O` [Compound 482, 5-chloro-6-[4-[3-(dimethylamino)propoxy]-2,6-difluorophenyl]-1-[(2S)-2-methylbutyl]-3-(1H-pyrazol-1-yl)-2(1H)-pyrazinone], the pIC50 in experiment [1] (Mus musculus, N1E-115) is 8.59; in experiment [2] (Homo sapiens), 8.82. For the same compound, the “N1E115 Ratio (paclitaxel/compound)” value in experiment [1] came to 33.85. Besides, the “RD Ratio (paclitaxel/compound)” value in experiment [2] is reported as 11.33.

Consider `CC[C@H](C)Cn1c(-c2c(F)cc(OCCN(C)C)cc2F)c(Cl)nc(-n2cccn2)c1=O` [Compound 483], for which, in experiment [1], the pIC50 is 7.09 and the “N1E115 Ratio (paclitaxel/compound)” value is 1.09. Further, in experiment [2], the “RD Ratio (paclitaxel/compound)” value was determined as 0.43 and the pIC50 was 7.40.

Take `CC[C@H](C)Cn1c(-c2c(F)cc(OCCN(C)C)cc2F)c(Cl)nc(C(N)=O)c1=O` [Compound 484]: in experiment [1], the pIC50 was 6.55 and the “N1E115 Ratio (paclitaxel/compound)” value worked out at 0.31. Moreover, in experiment [2], the “RD Ratio (paclitaxel/compound)” value is listed as 1.70 and the pIC50 was 8.00.

For the compound `CC(Cn1c(-c2c(F)cc(OCCCN(C)C)cc2F)c(Cl)nc(-n2cccn2)c1=O)C(F)(F)F` (stereo not drawn) [Compound 485, 5-chloro-6-[4-[3-(dimethylamino)propoxy]-2,6-difluorophenyl]-3-(1H-pyrazol-1-yl)-1-(3,3,3-trifluoro-2-methylpropyl)-2(1H)-pyrazinone], the pIC50 in experiment [1] (Mus musculus, N1E-115) is 6.82; in experiment [2] (Homo sapiens), 7.56. The “N1E115 Ratio (paclitaxel/compound)” value in experiment [1] was determined as 0.58. Besides, the “RD Ratio (paclitaxel/compound)” value in experiment [2] was 0.62.

In the case of `CN(C)CCCOc1cc(F)c(-c2c(Cl)nc(-n3cccn3)c(=O)n2-c2cccc(F)c2)c(F)c1` [Compound 491], in experiment [1], the pIC50 is 7.66 and the “N1E115 Ratio (paclitaxel/compound)” value is 4.00. In experiment [2], the “RD Ratio (paclitaxel/compound)” value is recorded as 0.60 and the pIC50 is 7.55.

`CNCCCOc1cc(F)c(-c2c(Cl)nc(-n3cccn3)c(=O)n2-c2cccc(F)c2)c(F)c1.Cl` [Compound 492]: in experiment [1], the pIC50 was 7.80 and the “N1E115 Ratio (paclitaxel/compound)” value is given as 5.50. Besides, in experiment [2], the “RD Ratio (paclitaxel/compound)” value was found to be 5.15 and the pIC50 is 8.48.

For the compound `CC[C@H](C)Cn1c(-c2c(F)cc(OCCCNC)cc2Cl)c(Cl)nc(-n2cccn2)c1=O` [Compound 493, 5-chloro-6-[2-chloro-6-fluoro-4-[3-(methylamino)propoxy]phenyl]-1-[(2S)-2-methylbutyl]-3-(1H-pyrazol-1-yl)-2(1H)-pyrazinone], the pIC50 in experiment [1] (Mus musculus, N1E-115) is 8.35; in experiment [2] (Homo sapiens), 9.22. For the same compound, in experiment [1], the “N1E115 Ratio (paclitaxel/compound)” value is listed as 19.56. The “RD Ratio (paclitaxel/compound)” value in experiment [2] amounted to 28.33.

The term pIC50 denotes the negative decadic logarithm of the IC50, by convention in mol/L.

The values are drawn from patent publication US20090186907A1, “Pyrazinones As Cellular Proliferation Inhibitors” (E.I. DuPont De Nemours and Company, priority 2006, published 2009).
